Patent US12023397B2, “Scalp protection composition” (PATECH FINE CHEMICALS CO., LTD., priority 2021, dated 2024)

Key:
[1] = Hydrolysis resistance (variation in acid value in alkaline aqueous solution, pH 13); type: physicochemical; settings: 10 g sample + 20 g NaOH aqueous solution pH 13, 40±1° C.
Protocol: 10 g of the carboxylate compound of formula (I-1) prepared in Synthesis Example 1 was mixed with 20 g of an alkaline aqueous solution with a pH value of 13 (which contained sodium hydroxide and water), and then subjected to a reaction at 40±1° C. for 4 hours. Next, the variation in acid value (mg KOH/g) was measured at the 0.75th, 2nd, 3rd, and 4th hours after starting the reaction.
The carboxylate compound of formula (I-2) prepared in Synthesis Example 2, the carboxylate compound of formula (I-3) prepared in Synthesis Example 3, and the test samples of Comparative Examples 1 to 2 were subjected to the same reaction and measurement as described above.
The smaller the variation in acid value, the better the hydrolysis resistance to strong bases is.

[2] = Spreadability (spreading rate on quantitative filter paper); type: physicochemical; settings: 50 μL on quantitative filter paper NO. 5C, spreading area after 5 minutes divided by time
Protocol: 50 μL of the carboxylate compound of formula (I-1) prepared in Synthesis Example 1 was dropped on the center of a quantitative filter paper (NO. 5C), and after 5 minutes, the spreading area of the carboxylate compound of formula (I-1) on the quantitative filter paper was measured. The spreading rate (mm^2/min) was calculated by dividing the spreading area by the spreading time (i.e., 5 minutes).
The carboxylate compound of formula (I-2) prepared in Synthesis Example 2, the carboxylate compound of formula (I-3) prepared in Synthesis Example 3, and the test samples of Comparative Examples 1 to 3 were subjected to the same measurement as described above.
The higher the spreading rate, the better the spreadability is.

skin of a test subject = assay: Moisture retention (skin moisture content after application); type: in vivo; settings: 20° C.±3° C., relative humidity 30%±5%
Protocol: 0.1 g of the scalp protection composition of Example 1 was applied to the skin of a test subject. At the 1st, 2nd, and 3rd hours after start of application of the scalp protection composition of Example 1, the skin moisture content (%) of the test subject was measured by using a skin moisture tester (Manufacturer: Cortex Technology; Model no.: DermaLab® Combo) under a temperature of 20° C.±3° C. and a relative humidity of 30%±5%.
The test samples of Comparative Examples 1 and 3 were subjected to the same measurement as described above.
The higher the skin moisture content, the better the moisture retention is.

| Variation in acid value ([1]; 0.75th hour) [mg KOH/g] | Variation in acid value ([1]; 2nd hour) [mg KOH/g] | Variation in acid value ([1]; 3rd hour) [mg KOH/g] | Variation in acid value ([1]; 4th hour) [mg KOH/g] | Spreading rate [2] [mm^2/min] | Compound | Skin moisture content (skin of a test subject; 1st hour after application of 0.1 g to skin) [%] | Skin moisture content (skin of a test subject; 2nd hour after application of 0.1 g to skin) [%] | Skin moisture content (skin of a test subject; 3rd hour after application of 0.1 g to skin) [%] |
| --- | --- | --- | --- | --- | --- | --- | --- | --- |
| 0.21 | 0.26 | 0.28 | 0.32 | 150 | CCCCCCCCCCC(CCCCCCCC)COC(=O)CCCCCCCCCCCCCCC(C)C (stereo not shown) [Comparative Example 1, 2-octyldodecyl isostearate] | 28.0 | 22.7 | 19.3 |
| <0.1 | <0.1 | 0.12 | 0.16 | 202 | CCCCCCCCCCC(CCCCCCCC)COC(=O)C(CC)CCCC (stereo not shown) [Synthesis Example 1, 2-octyldodecyl 2-ethylhexanoate] |  |  |  |
